Results reported in patent publication US20250367225A1 (priority 2022, published 2025).

Experiments:
[1] = tested on: SARS-COV-2 Omicron BA.1 variant (B.1.1.529); set-up: species or system BALB/c mice; conditions: mouse, in vivo
[2] = tested on: SARS-COV-2 Delta variant (B.1.617.2); set-up: species or system Syrian hamsters; conditions: hamster, in vivo

`CCCCCCCCCCCCCC[C@@H](O)[C@@H](O)[C@H](CO[C@H]1O[C@H](CO)[C@H](O)[C@H](O)[C@H]1O)NC(=O)CCCCCCCCCCc1ccc(F)cc1` [7DW8-5] was tested, and the body weight [1] was “significant weight gain”, the “virus replication in lung tissues” value [1] was “complete inhibition” and the “viral load in lung tissues” value [2] was “significantly decreased”. For the same compound, the “viral load in nasal tissues” value [2] was “significantly decreased”.
